According to patent publication US20070021450A1, “Indanylamino uracils and their use as antioxidants and neuroprotectants” (priority 2004, published 2007):

How the values were obtained:
human red blood cells = experiment: Hypochlorite (HOCl) hemolysis of human red blood cells; type: cell-based; conditions: activity compared to ascorbic acid
Description: Hypochlorite (HOCl) hemolysis of human red blood cells. The reaction is based on the ability of O2 radicals to lyse red blood cells. Antioxidant compounds such as ascorbic acid and 4-hydroxy-2,2,6,6-tetramethyl-piperidine-1-oxyl (TEMPOL) prevent membrane damage in a dose dependent manner. All compounds were dissolved at a concentration of 5 mg/ml and aliquots were tested for their ability to prevent lysis.

[1] = Chemical chemiluminescence (without cells): Luminol+SIN-1+selenite+BSA; parameters: concentration or dose not given beside the values; conditions: compared to ascorbic acid
Excerpt: Luminescence was generated in vials containing the following compounds: Luminol+SIN-1(generator of NO radicals)+selenite+BSA. This reaction is inhibited by scavengers of peroxynitrites, as well as scavengers of NO and O2 free radicals.

neutrophils = experiment: PMA-induced oxidative burst in neutrophils (DCFH, FACS); type: cell-based; conditions: PMA 10 ng/ml 30 min, compared to ascorbic acid
Description: PMA-induced oxidative burst in neutrophils: The cells were activated with PMA (10 ng/ml) for 30 min and incubated with 2,7-dichlorodihydrofluorescin diacetate (DCFH), which, in the presence of O2 radicals and peroxynitrites, is converted to a fluorescent compound. The fluorescent cells are detected in a cell sorter (FACS).

[2] = Reaction with 1,1-diphenyl-2-picrylhydrazyl (DPPNH), radical scavenging; type: physicochemical; conditions: equimolar amounts; for DPPNH: radical scavenging, grades 0 to +++, key not given; for DPPNH consumed: reacted instantaneously
Description: (§1) Reaction with 1,1-diphenyl-2-picrylhydrazyl (DPPNH) is indicative of radical scavenging ability. The compounds were mixed with DPPNH (in equimolar amounts) and the consumption rate of DPPNH was measured. Compounds 3 and 4 reacted instantaneously, consuming 70% and 20% of DPPNH respectively (Table 2). The oxidation potential of the compounds was measured by cyclic voltametry.

[3] = Oxidation potential by cyclic voltametry; type: physicochemical; conditions: for oxidation potential (cyclic voltametry), in words: pH 7.2
Description: as §1

[4] = system: EAE (PLP 139-151 challenge); experiment: PLP induced experimental allergic encephalomyelitis (EAE) in SJL mice; type: in vivo; parameters: key to Mean maximal score / Mean score (group mean score): clinical score 0 = no signs to 6 = death; conditions: for effect on EAE, in words: 50 mg/kg/day po
Description: Female SJL mice (12 weeks) were inoculated with the encephalitogenic peptide of proteolipid protein (PLP 139-151) synthesized to a purity of 70% by Sigma (Israel). 150 μg of the peptide were emulsified in complete Freund's adjuvant (CFA) (Difco laboratories), supplemented with killed mycobacteria (5 mg/ml) and pertussis toxin (200 ng) (Sigma), given subcutaneously at day of inoculation only.
Mice were kept SPF conditions and given water and food ad libitum. Mice were daily observed for clinical signs from day 10 to day 18-21 post inoculation.
The clinical score used is as follows: 0—no clinical signs; 0.5—loss of right reflex; 1—distal limp tail; 2—complete limp tail; 3—ataxia; 4—early paralysis (one hind limb); 5—complete hind legs paralysis and moribund state; 6—death.
Compounds were dissolved in 2-hydroxypropyl beta cyclodextrin (40% water solution). Treatment started at day 1 post inoculation. The compounds (50 mg/kg) and vehicle were given orally by gavage every day until day 20 post inoculation.
Compounds 6 and 7 were given orally to mice challenged with PLP, at a dose of 50 mg/kg/day, p.o. The results are presented in Table 3a and in FIGS. 2 and 3. The effect of Compound 6 on all parameters of the disease was more pronounced as compared to the control group.

EAE = experiment: Treatment of EAE with TEMPOL (FIG. 1); type: in vivo, mice; conditions: Tempol 100 mg and 200 mg groups
Excerpt: The dosage of TEMPOL used here was […] higher than the dosages of compounds 6 and 7 below. The experiments were terminated arbitrarily at day 18 post-immunization. The course of EAE in different groups of animals varies. Consequently, recovery time is variable, typically by two or three days.

[5] = system: EAE (MSCH emulsion induction); experiment: EAE in CSJL mice, acute model (MSCH/CFA induction); type: in vivo; conditions: for Mortality / Incidence: 30 days, CSJL mice; for Mean Duration: duration of disease; for % inhibition 3: inhibition of GMS vs control; for % inhibition 2: inhibition of MMS vs control; for % inhibition 1: inhibition of incidence vs control; for GMS value: mean group score; for MMS value: mean maximal score
[6] = system: EAE (PLP 139-151 challenge); experiment: PLP induced experimental allergic encephalomyelitis (EAE) in SJL mice; type: in vivo; conditions: single dose daily, po
[7] = Table 3b: 50 mg/kg, single dose daily, po
[8] = Table 3b: 50 mg/kg, single dose daily, po, only mice that develop disease
[9] = Table 3a: 50 mg/kg/day po, PLP challenge, mean ± SEM
[10] = Table 3a: 50 mg/kg/day po, single dose daily, PLP challenge
[11] = 25.0 mg/kg × 2 per day (single dose on weekends), oral
[12] = Table 3b: 12.5 mg/kg, single dose daily, po
[13] = Table 3b: 100 mg/kg, single dose daily, po

Nc1cc(=O)[nH]c(=O)n1C1CCc2ccccc21 (centres unmarked) [Compound 1, 6-amino-1-indan-1-yl-1H-pyrimidine-2,4-dione]
HOCl % lysis (human red blood cells): 75% | % Chemiluminescence inhibition [1]: 0% | PMA % of cells activated (neutrophils): 0% | DPPNH [2]: 0 | oxidation potential (cyclic voltametry), in words [3]: reducing action, but to a lesser extent than compound 3 | Incidence [4, 7]: 6/8 | Mean disease duration [4, 7]: 5.57 ± 1.72 | Mean maximal score [4, 7]: 4.2 | Mean score [4, 7]: 3.4 ± 0.2 | Mean day of onset [4, 8]: 12.5 ± 0.7

CC1(C)CC(O)CC(C)(C)N1[O] [4-hydroxy-2,2,6,6-tetramethyl-piperidine-1-oxyl, reference compound]
HOCl % lysis (human red blood cells): 50% | % Chemiluminescence inhibition [1]: 78% | PMA % of cells activated (neutrophils): 80% | manifestation of clinical signs of EAE, in words (EAE): has the ability to inhibit the manifestation of clinical signs of EAE

CN(C)c1ccc2c(c1)C(Nc1cc(=O)[nH]c(=O)[nH]1)CC2.Cl (centres unmarked) [Compound 7, 6-(6-dimethylamino-indan-1-ylamino)-1H-pyrimidine-2,4-dione HCl]
HOCl % lysis (human red blood cells): 55% | % Chemiluminescence inhibition [1]: 62% | effect on EAE, in words ([4]; PLP challenge): significant beneficial effect on EAE | Mean day of onset [4, 9]: 14.8 ± 0.94 | Mean disease duration [4, 9]: 4.1 ± 0.84 | Mean maximal score [4, 9]: 4.3 ± 0.9 | Mean score (group mean score) [4, 9]: 1.6 ± 0.27 | (# dead) [4, 10]: (4) | Incidence [4, 10]: 11/14 | Mortality [5, 11]: 8/10 | Incidence ([5]; 25.0 mg/kg × 2 per day, oral): 8/10 | Incidence ([5]; 50.0 mg/kg once a day, oral): 7/10 | Mortality ([5]; 50.0 mg/kg once a day, oral): 7/10 | Mean Duration ([5]; 25.0 mg/kg × 2, oral): 13.9 ± 7.5 days | Mean Duration ([5]; 50.0 mg/kg once a day, oral): 12.7 ± 8.8 days | % inhibition 3 ([5]; 25.0 mg/kg × 2, oral): 9.4% | % inhibition 3 ([5]; 50.0 mg/kg once a day, oral): 15.6% | % inhibition 2 ([5]; 25.0 mg/kg × 2, oral): 2.4% | % inhibition 2 ([5]; 50.0 mg/kg once a day, oral): 14.6% | % inhibition 1 ([5]; 25.0 mg/kg × 2, oral): 20.0% | % inhibition 1 ([5]; 50.0 mg/kg once a day, oral): 30.0% | GMS value ([5]; 25.0 mg/kg × 2, oral): 2.9 ± 1.6 | GMS value ([5]; 50.0 mg/kg once a day, oral): 2.7 ± 1.9 | MMS value ([5]; 25.0 mg/kg × 2, oral): 4.0 ± 2.1 | MMS value ([5]; 50.0 mg/kg once a day, oral): 3.5 ± 2.4

O=c1cc(NC2CCc3ccccc32)[nH]c(=O)[nH]1 (centres unmarked) [Compound 5, 6-(indan-1-ylamino)-1H-pyrimidine-2,4-dione]
HOCl % lysis (human red blood cells): 100% | % Chemiluminescence inhibition [1]: 75% | PMA % of cells activated (neutrophils): 80% | DPPNH [2]: 0 | oxidation potential (cyclic voltametry), in words [3]: reducing action, but to a lesser extent than compound 3 | Incidence [4, 12]: 18/18 | Mean maximal score [4, 12]: 4.5 | Incidence [4, 7]: 14/16 | Mean disease duration [4, 7]: 5.64 ± 1.55 | Mean maximal score [4, 7]: 5 | Mean score [4, 7]: 3.48 ± 0.3 | Mean day of onset [4, 8]: 12.9 ± 1.35 | Incidence [4, 13]: 5/5 | Mean maximal score [4, 13]: 5 | Mean score [4, 13]: 3.2 ± 0.25 | Mean day of onset ([4]; Table 3b:, single dose daily, po, only mice that develop disease): 11.8 ± 1.1 | Mean disease duration ([6]; Table 3b: 12.5 mg/kg): 6.06 ± 1.7 | Mean score ([6]; Table 3b: 12.5 mg/kg): 3.8 ± 0.35 | Mean day of onset ([6]; Table 3b: 12.5 mg/kg, only mice that develop disease): 12 ± 0.68 | Mean disease duration ([6]; Table 3b: 100 mg/kg): 4.4 ± 1.7

CC1(C)CC(O)CC(C)(C)N1O [N-Hydroxy-tetramethyl-4-piperidinol, reference compound]
HOCl % lysis (human red blood cells): 52% | % Chemiluminescence inhibition [1]: 42% | PMA % of cells activated (neutrophils): 60%

CN(C)c1cccc2c1CCC2Nc1cc(=O)[nH]c(=O)[nH]1.Cl (centres unmarked) [Compound 6, 6-(4-dimethylamino-indan-1-ylamino)-1H-pyrimidine-2,4-dione HCl]
HOCl % lysis (human red blood cells): 44% | % Chemiluminescence inhibition [1]: 56% | effect on EAE, in words ([4]; PLP challenge): significant beneficial effect on EAE | (# dead) [4, 10]: (4) | Incidence [4, 10]: 10/14 | Mortality [5, 11]: 4/10 | Incidence ([5]; 25.0 mg/kg × 2 per day, oral): 7/10 | Incidence ([5]; 50.0 mg/kg once a day, oral): 7/10 | Mortality ([5]; 50.0 mg/kg once a day, oral): 5/10 | Mean Duration ([5]; 25.0 mg/kg × 2, oral): 11.1 ± 8.6 days | Mean Duration ([5]; 50.0 mg/kg once a day, oral): 11.3 ± 8.5 days | % inhibition 3 ([5]; 25.0 mg/kg × 2, oral): 40.6% | % inhibition 3 ([5]; 50.0 mg/kg once a day, oral): 31.3% | % inhibition 2 ([5]; 25.0 mg/kg × 2, oral): 34.1% | % inhibition 2 ([5]; 50.0 mg/kg once a day, oral): 26.8% | % inhibition 1 ([5]; 25.0 mg/kg × 2, oral): 30.0% | % inhibition 1 ([5]; 50.0 mg/kg once a day, oral): 30.0% | GMS value ([5]; 25.0 mg/kg × 2, oral): 1.9 ± 1.9 | GMS value ([5]; 50.0 mg/kg once a day, oral): 2.2 ± 1.8 | MMS value ([5]; 25.0 mg/kg × 2, oral): 2.7 ± 2.2 | MMS value ([5]; 50.0 mg/kg once a day, oral): 3.0 ± 2.3

Nc1c(N)n(C2CCc3ccccc32)c(=O)[nH]c1=O (centres unmarked) [Compound 3, 5,6-diamino-1-indan-1-yl-1H-pyrimidine-2,4-dione]
HOCl % lysis (human red blood cells): 72% | % Chemiluminescence inhibition [1]: 38% | PMA % of cells activated (neutrophils): 30% | DPPNH consumed [2]: 70% | oxidation potential (cyclic voltametry), in words [3]: strong electron donor activity | melting point: 218 °C (dec.)

Nc1c(NC2CCc3ccccc32)[nH]c(=O)[nH]c1=O (centres unmarked) [Compound 4, 5-amino-6-(indan-1-ylamino)-1H-pyrimidine-2,4-dione]
DPPNH consumed [2]: 20% | Cyclic voltametry - AW ([3]; anodic wave, grades 0 to +++, key not given): 0 | melting point: > 150 °C

O=C1O[C@H]([C@@H](O)CO)C(O)=C1O [Ascorbic acid, reference compound]
HOCl % lysis (human red blood cells): 100% | % Chemiluminescence inhibition [1]: 100% | PMA % of cells activated (neutrophils): 100%

CC1(C)CC(O)CC(C)(C)N1 [Tetramethyl-4-piperidinol, reference compound]
HOCl % lysis (human red blood cells): 0% | % Chemiluminescence inhibition [1]: 1.2% | PMA % of cells activated (neutrophils): 30%
